# Test results: PubChem BioAssay (NCI)
#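 These data come from cells grown in 96-well plates and exposed to compound for 48 hours at five concentrations. GI50 marks 50% less growth. At the TGI there is no net growth.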
# Legend:
# Assay in all cases: growth of human tumour cells (NCI), 48 h
# UACC-62 melanoma = system: UACC-62 melanoma
# SR leukemia = system: SR leukemia
# TK-10 renal = system: TK-10 renal
# NCI-H226 lung = system: NCI-H226 lung
# NCI/ADR-RES ovarian = system: NCI/ADR-RES ovarian
# HS 578T breast = system: HS 578T breast
# MOLT-4 leukemia = system: MOLT-4 leukemia
# T-47D breast = system: T-47D breast
# NCI-H23 lung = system: NCI-H23 lung
# OVCAR-3 ovarian = system: OVCAR-3 ovarian
# NCI-H522 lung = system: NCI-H522 lung
# SF-268 CNS = system: SF-268 CNS
# UACC-257 melanoma = system: UACC-257 melanoma
# OVCAR-4 ovarian = system: OVCAR-4 ovarian
# M14 melanoma = system: M14 melanoma
# ACHN renal = system: ACHN renal
# SK-MEL-2 melanoma = system: SK-MEL-2 melanoma
# HL-60(TB) leukemia = system: HL-60(TB) leukemia
# HOP-62 NSCLC = system: HOP-62 NSCLC
# MDA-MB-435 = system: MDA-MB-435
# A498 renal = system: A498 renal
# MALME-3M melanoma = system: MALME-3M melanoma
# EKVX NSCLC = system: EKVX NSCLC
# HCC-2998 colon = system: HCC-2998 colon
# SK-MEL-5 melanoma = system: SK-MEL-5 melanoma
# HT29 colon = system: HT29 colon
# MDA-MB-231 breast = system: MDA-MB-231 breast
# KM12 colon = system: KM12 colon
# SNB-19 CNS = system: SNB-19 CNS
# SW-620 colon = system: SW-620 colon
# HCT-116 colon = system: HCT-116 colon
# CAKI-1 renal = system: CAKI-1 renal
# HOP-92 NSCLC = system: HOP-92 NSCLC
# NCI-H460 lung = system: NCI-H460 lung
# DU-145 prostate = system: DU-145 prostate
# A549 NSCLC = system: A549 NSCLC
# SNB-75 CNS = system: SNB-75 CNS
# CCRF-CEM leukemia = system: CCRF-CEM leukemia
# UO-31 renal = system: UO-31 renal
# LOX IMVI melanoma = system: LOX IMVI melanoma
# 786-0 renal = system: 786-0 renal
# OVCAR-8 ovarian = system: OVCAR-8 ovarian
# SF-539 CNS = system: SF-539 CNS
# SF-295 CNS = system: SF-295 CNS
# SK-MEL-28 melanoma = system: SK-MEL-28 melanoma
# OVCAR-5 ovarian = system: OVCAR-5 ovarian
# IGROV1 ovarian = system: IGROV1 ovarian
# PC-3 prostate = system: PC-3 prostate
# K-562 leukemia = system: K-562 leukemia
# RXF 393 renal = system: RXF 393 renal
# RPMI-8226 leukemia = system: RPMI-8226 leukemia
# HCT-15 colon = system: HCT-15 colon
# U251 CNS = system: U251 CNS
# COLO 205 colon = system: COLO 205 colon
# MCF7 breast = system: MCF7 breast
# SN12C renal = system: SN12C renal
# BT-549 breast = system: BT-549 breast
# SK-OV-3 ovarian = system: SK-OV-3 ovarian
smiles,measurement,setting,value
COc1cc2c3c(n(CCCn4ccnc4)c(=O)c2cc1OC)-c1cc2c(cc1C3=O)OCO2,GI50,UACC-62 melanoma,< 10 nM
same,TGI,UACC-62 melanoma,93.7 nM
same,GI50,SR leukemia,< 10 nM
same,TGI,SR leukemia,< 10 nM
same,GI50,TK-10 renal,2220 nM
same,TGI,TK-10 renal,> 100000 nM
same,GI50,NCI-H226 lung,< 13.5 nM
same,TGI,NCI-H226 lung,160 nM
same,GI50,NCI/ADR-RES ovarian,28.5 nM
same,TGI,NCI/ADR-RES ovarian,3590 nM
same,GI50,HS 578T breast,> 100000 nM
same,TGI,HS 578T breast,> 100000 nM
same,GI50,MOLT-4 leukemia,< 10 nM
same,TGI,MOLT-4 leukemia,< 10 nM
same,GI50,T-47D breast,< 10 nM
same,TGI,T-47D breast,< 10 nM
same,GI50,NCI-H23 lung,16.2 nM
same,TGI,NCI-H23 lung,164 nM
same,GI50,OVCAR-3 ovarian,79.5 nM
same,TGI,OVCAR-3 ovarian,804 nM
same,GI50,NCI-H522 lung,369 nM
same,TGI,NCI-H522 lung,> 100000 nM
same,GI50,SF-268 CNS,< 10 nM
same,TGI,SF-268 CNS,> 100000 nM
same,GI50,UACC-257 melanoma,1200 nM
same,TGI,UACC-257 melanoma,26800 nM
same,GI50,OVCAR-4 ovarian,2900 nM
same,TGI,OVCAR-4 ovarian,> 100000 nM
same,GI50,M14 melanoma,< 10 nM
same,TGI,M14 melanoma,100 nM
same,GI50,ACHN renal,< 10 nM
same,TGI,ACHN renal,> 100000 nM
same,GI50,SK-MEL-2 melanoma,> 100000 nM
same,TGI,SK-MEL-2 melanoma,> 100000 nM
same,GI50,HL-60(TB) leukemia,< 10 nM
same,TGI,HL-60(TB) leukemia,< 19.5 nM
same,GI50,HOP-62 NSCLC,< 10 nM
same,TGI,HOP-62 NSCLC,153 nM
same,GI50,MDA-MB-435,72.8 nM
same,TGI,MDA-MB-435,1670 nM
same,GI50,A498 renal,20.3 nM
same,TGI,A498 renal,87.8 nM
same,GI50,MALME-3M melanoma,791 nM
same,TGI,MALME-3M melanoma,> 31500 nM
same,GI50,EKVX NSCLC,1100 nM
same,TGI,EKVX NSCLC,> 20900 nM
same,GI50,HCC-2998 colon,< 10 nM
same,TGI,HCC-2998 colon,34.5 nM
same,GI50,SK-MEL-5 melanoma,18.5 nM
same,TGI,SK-MEL-5 melanoma,133 nM
same,GI50,HT29 colon,94.8 nM
same,TGI,HT29 colon,> 100000 nM
same,GI50,MDA-MB-231 breast,347 nM
same,TGI,MDA-MB-231 breast,3570 nM
same,GI50,KM12 colon,142 nM
same,TGI,KM12 colon,9320 nM
same,GI50,SNB-19 CNS,35.8 nM
same,TGI,SNB-19 CNS,> 100000 nM
same,GI50,SW-620 colon,< 10.9 nM
same,TGI,SW-620 colon,> 100000 nM
same,GI50,HCT-116 colon,< 10 nM
same,TGI,HCT-116 colon,148 nM
same,GI50,CAKI-1 renal,< 10 nM
same,TGI,CAKI-1 renal,27 nM
same,TGI,HOP-92 NSCLC,> 100000 nM
same,GI50,NCI-H460 lung,< 10 nM
same,TGI,NCI-H460 lung,> 21700 nM
same,GI50,DU-145 prostate,< 10 nM
same,TGI,DU-145 prostate,> 100000 nM
same,GI50,A549 NSCLC,52.8 nM
same,TGI,A549 NSCLC,> 100000 nM
same,GI50,SNB-75 CNS,34.5 nM
same,TGI,SNB-75 CNS,> 100000 nM
same,GI50,CCRF-CEM leukemia,< 10 nM
same,TGI,CCRF-CEM leukemia,< 10 nM
same,GI50,UO-31 renal,< 26.9 nM
same,TGI,UO-31 renal,> 48300 nM
same,GI50,LOX IMVI melanoma,< 10 nM
same,TGI,LOX IMVI melanoma,171 nM
same,GI50,786-0 renal,< 10 nM
same,TGI,786-0 renal,91.7 nM
same,GI50,OVCAR-8 ovarian,280 nM
same,TGI,OVCAR-8 ovarian,> 100000 nM
same,GI50,SF-539 CNS,< 19.3 nM
same,GI50,SF-295 CNS,< 10 nM
same,TGI,SF-295 CNS,1210 nM
same,GI50,SK-MEL-28 melanoma,> 100000 nM
same,TGI,SK-MEL-28 melanoma,> 100000 nM
same,GI50,OVCAR-5 ovarian,141 nM
same,TGI,OVCAR-5 ovarian,8330 nM
same,GI50,IGROV1 ovarian,959 nM
same,TGI,IGROV1 ovarian,> 100000 nM
same,GI50,PC-3 prostate,1280 nM
same,TGI,PC-3 prostate,> 100000 nM
same,GI50,K-562 leukemia,12.2 nM
same,GI50,RXF 393 renal,> 100000 nM
same,TGI,RXF 393 renal,> 100000 nM
same,GI50,RPMI-8226 leukemia,< 10 nM
same,TGI,RPMI-8226 leukemia,153 nM
same,GI50,HCT-15 colon,824 nM
same,TGI,HCT-15 colon,> 100000 nM
same,GI50,U251 CNS,< 10 nM
same,TGI,U251 CNS,1030 nM
same,GI50,COLO 205 colon,312 nM
same,TGI,COLO 205 colon,> 100000 nM
same,GI50,MCF7 breast,< 12.9 nM
same,TGI,MCF7 breast,> 100000 nM
same,GI50,SN12C renal,< 10 nM
same,TGI,SN12C renal,182 nM
CCCCCCCCCCCCCCCCSC(=NCC)NCC,GI50,UACC-62 melanoma,1670 nM
same,TGI,UACC-62 melanoma,3100 nM
same,GI50,NCI-H226 lung,2980 nM
same,TGI,NCI-H226 lung,14600 nM
same,GI50,HS 578T breast,2800 nM
same,TGI,HS 578T breast,8840 nM
same,GI50,T-47D breast,1480 nM
same,TGI,T-47D breast,3130 nM
same,GI50,NCI-H23 lung,2050 nM
same,TGI,NCI-H23 lung,4990 nM
same,GI50,UACC-257 melanoma,1870 nM
same,TGI,UACC-257 melanoma,3750 nM
same,GI50,BT-549 breast,6160 nM
same,TGI,BT-549 breast,46900 nM
same,GI50,SK-OV-3 ovarian,3360 nM
same,TGI,SK-OV-3 ovarian,11600 nM
same,GI50,SK-MEL-2 melanoma,4050 nM
same,TGI,SK-MEL-2 melanoma,28400 nM
same,GI50,HL-60(TB) leukemia,1450 nM
same,TGI,HL-60(TB) leukemia,3120 nM
same,GI50,HOP-62 NSCLC,1770 nM
same,TGI,HOP-62 NSCLC,3180 nM
same,GI50,A498 renal,6660 nM
same,TGI,A498 renal,34300 nM
same,GI50,HCC-2998 colon,1850 nM
same,TGI,HCC-2998 colon,3280 nM
same,GI50,MDA-MB-231 breast,1310 nM
same,TGI,MDA-MB-231 breast,2690 nM
same,GI50,SNB-19 CNS,3120 nM
same,TGI,SNB-19 CNS,15800 nM
same,GI50,CAKI-1 renal,1390 nM
same,TGI,CAKI-1 renal,2780 nM
same,GI50,DU-145 prostate,1620 nM
same,TGI,DU-145 prostate,2980 nM
same,GI50,SNB-75 CNS,2010 nM
same,TGI,SNB-75 CNS,12900 nM
same,GI50,UO-31 renal,1620 nM
same,TGI,UO-31 renal,4090 nM
same,GI50,LOX IMVI melanoma,1630 nM
same,TGI,LOX IMVI melanoma,3000 nM
same,GI50,786-0 renal,3490 nM
same,TGI,786-0 renal,20800 nM
same,GI50,SF-295 CNS,1470 nM
same,TGI,SF-295 CNS,2880 nM
same,GI50,OVCAR-5 ovarian,3080 nM
same,TGI,OVCAR-5 ovarian,12500 nM
same,GI50,PC-3 prostate,1370 nM
same,TGI,PC-3 prostate,2740 nM
same,GI50,RXF 393 renal,1630 nM
same,TGI,RXF 393 renal,3470 nM
same,GI50,COLO 205 colon,1810 nM
same,TGI,COLO 205 colon,3470 nM
same,GI50,SN12C renal,1560 nM
same,TGI,SN12C renal,2980 nM
